Measurements published in patent publication US20050215543A1, “Methods of treating HIV infection” (priority 2004, published 2005).

System: HIV-1 LAI
Assay: microbe, parasite or virus in culture
Conditions: for EC50: Human immunodeficiency virus 1, MT2, 120 h; for Combination Indices at % HIV Inhibition (Confidence Interval) 50%: 50% HIV inhibition; for Combination Indices at % HIV Inhibition (Confidence Interval) 50% / Combination Indices at % HIV Inhibition (Confidence Interval) 75% / Combination Indices at % HIV Inhibition (Confidence Interval) 90%: 95% CI in parenthesis; for Combination Indices at % HIV Inhibition (Confidence Interval) 75%: 75% HIV inhibition; for Combination Indices at % HIV Inhibition (Confidence Interval) 90%: 90% HIV inhibition; for Overall Result: two-drug combination with Compound 1, all ratios and effect levels, MT-2/HIV-1 LAI, RT assay
Method: Virus and cell lines. The T-cell lines, MT-2 and PM-1 were obtained through the AIDS Research and Reference Reagent Program, NIAID, and were contributed by Dr. D. Richman and Dr. R. Gallo, respectively. Both cell lines were cultured in RPMI 1640 medium supplemented with 10% fetal bovine serum, 2 mM L-glutamine and sub-cultured twice a week. The LAI strain of HIV-1 was obtained from the Fred Hutchinson Cancer Research Center, and the Bal strain was from NIH. Both virus stocks were amplified and titered in MT-2 cells (LAI) and PM-1 cells (Bal) using a virus infectivity assay.
Drug Susceptibility and Cytotoxicity Assays. For drug susceptibility assays, MT-2 cells were infected with HIV-1 LAI (or PM-1 cells with HIV-1 Bal) at an MOI of 0.005, and seeded into 96-well microtiter plates (0.1×10^6 cells/ml) containing serial dilutions of test compounds. […] Each drug ratio consisted of an array of 3-fold serial dilutions, and was performed in quadruplicate. The plates were incubated at 37° C./5% CO2. The MT-2 cells infected with HIV-1 LAI were incubated for 5 days. On day-five post-infection, 20 μl from each well was harvested and quantitated by a reverse transcriptase (RT) assay, or in samples involving non-nucleoside RT inhibitors, an MTS assay. The PM-1 cells infected with HIV-1 Bal and used for studying the combinations with CCR5 inhibitors were incubated for six days. On day-six post-infection, 20 μl from each well was harvested, 20- and 50-fold diluted and quantitated by p24 assay. Cytotoxicity assays were performed using uninfected cells, exposed to the same drug combinations, and incubated for six days. Cell viability was determined by an XTT assay. The CC50 values were calculated by using the exponential form of the median effect equation as mentioned below for calculation of EC50.
Analysis of Drug Combination Effects. For determination of CI values, drugs were diluted in a fixed ratio and multiple ratios were analyzed. The drug serial dilutions spanned a range of concentrations near the EC50 value of each compound, so that equivalent antiviral activities could be compared. Concentration-response curves were estimated for each individual drug and every combination using the median-effect equation. The equation was fit using a nonlinear regression routine (Proc Nlin) in PC SAS version 8.01 (SAS Institute Inc., SAS Version 8.01, Cary, N.C.: SAS Institute Inc., 1990).
In this equation, Fa stands for “fraction affected,” and represents the fraction of the viral load that has been inactivated. […] ED50 is drug concentration that is expected to reduce the amount of virus by 50%, and m is a parameter that reflects the slope of the concentration-response curve.
To assess antiviral effects of different drug combination treatments, combination indices (CIs) were calculated according to Chou and Rideout. The combination index was computed as CI=[D]1/[Dm]1+[D]2/[Dm]2
In this equation [Dm]1 and [Dm]2 are the concentrations of drugs that would individually produce a specific level of effect, while [D]1 and [D]2 are the concentrations of drugs in combination that would produce the same level of effect.
Theoretically, additivity is implied if the CI is equal to one, synergy if the CI is less than one, and antagonism if the CI is greater than one. […] At best, we can construct a range that contains the likely values for the CI, given the noise in the data. In this report, these ranges are reported in parentheses next to each point estimate of the CI. […] If the range fell entirely above 1.0, we would infer antagonistic behavior. If the range were to include 1.0, we would infer additivity.
In carrying out the combination experiments below, the EC50 for Compound 1 and each comparator compound was determined during the course of each study, and used in the subsequent data analysis.

[1] = combination with Compound 1, EC50 ratio 1:1 (Compound 1:comparator)
[2] = combination with Compound 1, EC50 ratio 1:1
[3] = combination with Compound 1, EC50 ratio 1:2.5
[4] = combination with Compound 1, EC50 ratio 2.5:1

Cc1cn([C@H]2C[C@H](N=[N+]=[N-])[C@@H](CO)O2)c(=O)[nH]c1=O [Zidovudine, zidovudine]
EC50: 3 nM | Combination Indices at % HIV Inhibition (Confidence Interval) 50% [1]: 1.06 (0.85, 1.27) | Combination Indices at % HIV Inhibition (Confidence Interval) 75% [2]: 0.99 (0.72, 1.26) | Combination Indices at % HIV Inhibition (Confidence Interval) 90% [2]: 0.93 (0.53, 1.34) | Combination Indices at % HIV Inhibition (Confidence Interval) 50% [3]: 1.21 (1.01, 1.40) | Combination Indices at % HIV Inhibition (Confidence Interval) 75% [3]: 0.95 (0.74, 1.16) | Combination Indices at % HIV Inhibition (Confidence Interval) 90% [3]: 0.76 (0.50, 1.02) | Combination Indices at % HIV Inhibition (Confidence Interval) 50% [4]: 0.81 (0.69, 0.92) | Combination Indices at % HIV Inhibition (Confidence Interval) 75% [4]: 0.70 (0.56, 0.83) | Combination Indices at % HIV Inhibition (Confidence Interval) 90% [4]: 0.60 (0.42, 0.79) | Overall Result: Additive- | Overall Result (listed as zidovudine): additive to synergistic

COC(=O)N[C@H](C(=O)N[C@@H](Cc1ccccc1)[C@@H](O)CN(Cc1ccc(-c2ccccn2)cc1)NC(=O)[C@@H](NC(=O)OC)C(C)(C)C)C(C)(C)C [Atazanavir, atazanavir]
EC50: 1 nM | Combination Indices at % HIV Inhibition (Confidence Interval) 50% [1]: 1.04 (0.60, 1.49) | Combination Indices at % HIV Inhibition (Confidence Interval) 75% [2]: 0.58 (0.24, 0.93) | Combination Indices at % HIV Inhibition (Confidence Interval) 90% [2]: 0.33 (0.02, 0.64) | Combination Indices at % HIV Inhibition (Confidence Interval) 50% [3]: 0.23 (0.09, 0.38) | Combination Indices at % HIV Inhibition (Confidence Interval) 75% [3]: 0.35 (0.07, 0.63) | Combination Indices at % HIV Inhibition (Confidence Interval) 90% [3]: 0.52 (0.00, 1.24) | Combination Indices at % HIV Inhibition (Confidence Interval) 50% [4]: 0.88 (0.49, 1.27) | Combination Indices at % HIV Inhibition (Confidence Interval) 75% [4]: 0.67 (0.26, 1.09) | Combination Indices at % HIV Inhibition (Confidence Interval) 90% [4]: 0.52 (0.01, 1.04) | Overall Result: Additive- | Overall Result (listed as atazanavir): additive to synergistic

Nc1ccn([C@@H]2CS[C@H](CO)O2)c(=O)n1 [Lamivudine, lamivudine]
EC50: 140 nM | Combination Indices at % HIV Inhibition (Confidence Interval) 50% [1]: 1.02 (0.80, 1.23) | Combination Indices at % HIV Inhibition (Confidence Interval) 75% [2]: 0.59 (0.42, 0.76) | Combination Indices at % HIV Inhibition (Confidence Interval) 90% [2]: 0.37 (0.21, 0.53) | Combination Indices at % HIV Inhibition (Confidence Interval) 50% [3]: 0.89 (0.76, 1.02) | Combination Indices at % HIV Inhibition (Confidence Interval) 75% [3]: 0.41 (0.34, 0.47) | Combination Indices at % HIV Inhibition (Confidence Interval) 90% [3]: 0.20 (0.15, 0.24) | Combination Indices at % HIV Inhibition (Confidence Interval) 50% [4]: 1.07 (0.95, 1.20) | Combination Indices at % HIV Inhibition (Confidence Interval) 75% [4]: 0.71 (0.58, 0.83) | Combination Indices at % HIV Inhibition (Confidence Interval) 90% [4]: 0.50 (0.36, 0.65)

Nc1ccn([C@H]2CC[C@@H](CO)O2)c(=O)n1 [Zalcitabine, zalcitabine]
EC50: 110 nM | Combination Indices at % HIV Inhibition (Confidence Interval) 50% [1]: 0.55 (0.41, 0.70) | Combination Indices at % HIV Inhibition (Confidence Interval) 75% [2]: 0.57 (0.36, 0.77) | Combination Indices at % HIV Inhibition (Confidence Interval) 90% [2]: 0.59 (0.25, 0.92) | Combination Indices at % HIV Inhibition (Confidence Interval) 50% [3]: 0.87 (0.65, 1.08) | Combination Indices at % HIV Inhibition (Confidence Interval) 75% [3]: 0.66 (0.44, 0.89) | Combination Indices at % HIV Inhibition (Confidence Interval) 90% [3]: 0.51 (0.24, 0.78) | Combination Indices at % HIV Inhibition (Confidence Interval) 50% [4]: 0.68 (0.48, 0.89) | Combination Indices at % HIV Inhibition (Confidence Interval) 75% [4]: 0.64 (0.37, 0.90) | Combination Indices at % HIV Inhibition (Confidence Interval) 90% [4]: 0.59 (0.20, 0.98) | Overall Result: Synergistic | Overall Result (listed as zalcitabine): consistent synergy at all effective levels and concentration ratios

Cc1cccc(C)c1OCC(=O)N[C@@H](Cc1ccccc1)[C@@H](O)C[C@H](Cc1ccccc1)NC(=O)[C@H](C(C)C)N1CCCNC1=O [Lopinavir, lopinavir]
EC50: 1 nM | Combination Indices at % HIV Inhibition (Confidence Interval) 50% [1]: 0.23 (0.16, 0.42) | Combination Indices at % HIV Inhibition (Confidence Interval) 75% [2]: 0.22 (0.14, 0.30) | Combination Indices at % HIV Inhibition (Confidence Interval) 90% [2]: 0.26 (0.09, 0.44) | Combination Indices at % HIV Inhibition (Confidence Interval) 50% [3]: 0.13 (0.08, 0.18) | Combination Indices at % HIV Inhibition (Confidence Interval) 75% [3]: 0.06 (0.05, 0.08) | Combination Indices at % HIV Inhibition (Confidence Interval) 90% [3]: 0.03 (0.02, 0.05) | Combination Indices at % HIV Inhibition (Confidence Interval) 50% [4]: 1.13 (0.73, 1.52) | Combination Indices at % HIV Inhibition (Confidence Interval) 75% [4]: 0.50 (0.26, 0.74) | Combination Indices at % HIV Inhibition (Confidence Interval) 90% [4]: 0.30 (0.07, 0.52) | Overall Result: Synergistic | Overall Result (listed as lopinavir): strong synergistic effects

CC(C)(C)NC(=O)[C@@H]1CN(Cc2cccnc2)CCN1C[C@@H](O)C[C@@H](Cc1ccccc1)C(=O)N[C@H]1c2ccccc2C[C@H]1O [Indinavir, indinavir]
EC50: 0.7 nM | Combination Indices at % HIV Inhibition (Confidence Interval) 50% [1]: 0.55 (0.46, 0.64) | Combination Indices at % HIV Inhibition (Confidence Interval) 75% [2]: 0.57 (0.45, 0.70) | Combination Indices at % HIV Inhibition (Confidence Interval) 90% [2]: 0.61 (0.39, 0.83) | Combination Indices at % HIV Inhibition (Confidence Interval) 50% [3]: 0.35 (0.24, 0.47) | Combination Indices at % HIV Inhibition (Confidence Interval) 75% [3]: 0.21 (0.17, 0.24) | Combination Indices at % HIV Inhibition (Confidence Interval) 90% [3]: 0.32 (0.20, 0.43) | Combination Indices at % HIV Inhibition (Confidence Interval) 50% [4]: 0.31 (0.22, 0.40) | Combination Indices at % HIV Inhibition (Confidence Interval) 75% [4]: 0.41 (0.27, 0.55) | Combination Indices at % HIV Inhibition (Confidence Interval) 90% [4]: 0.54 (0.20, 0.87) | Overall Result: Synergistic | Overall Result (listed as indinavir): strong synergistic effects

Nc1nc(NC2CC2)c2ncn([C@H]3C=C[C@@H](CO)C3)c2n1 [Abacavir, abacavir]
EC50: 400 nM | Combination Indices at % HIV Inhibition (Confidence Interval) 50% [1]: 0.29 (0.16, 0.42) | Combination Indices at % HIV Inhibition (Confidence Interval) 75% [2]: 0.51 (0.20, 0.82) | Combination Indices at % HIV Inhibition (Confidence Interval) 90% [2]: 0.91 (0.03, 1.78) | Combination Indices at % HIV Inhibition (Confidence Interval) 50% [3]: 0.53 (0.36, 0.70) | Combination Indices at % HIV Inhibition (Confidence Interval) 75% [3]: 0.61 (0.33, 0.88) | Combination Indices at % HIV Inhibition (Confidence Interval) 90% [3]: 0.71 (0.21, 1.22) | Combination Indices at % HIV Inhibition (Confidence Interval) 50% [4]: 0.36 (0.27, 0.45) | Combination Indices at % HIV Inhibition (Confidence Interval) 75% [4]: 0.52 (0.34, 0.71) | Combination Indices at % HIV Inhibition (Confidence Interval) 90% [4]: 0.76 (0.34, 1.19)
